Results as given in PMC8746705, “Comparison of Experimental Strategies to Study L-Type Amino Acid Transporter 1 (LAT1) Utilization by Ligands” (Molecules, 2021).

Assays:
LAT1 [1] = test: Quantitative expression of LAT1 on the BV2 plasma membrane (LC-MS proteomics); type: cell-based, mouse; conditions: BV2 cells incubated 24 h; normalized to Na+/K+ATPase; compared to untreated control
Description: The protein expression levels of LAT1, in the plasma membrane fractions of BV2 cells were quantified using multiplexed MRM analysis according to the protocol described by Uchida et al.. First, the crude membrane fractions were isolated from three distinct sets of cell culture plates using Membrane Protein Extraction Kit (BioVision Incorporated, Milpitas, CA, USA) according to the manufacturer’s instructions. The protein content for each fraction was measured by Bio-Rad Protein Assay, based on the Bradford dye-binding method (EnVision, Perkin Elmer, Inc., Waltham, MA, USA). A total amount of 50 µg protein from each fraction was solubilized/denatured in 7 M guanidine hydrochloride, 0.5 M Tris-HCl and 10 mM EDTA-Na. The proteins were then reduced by dithiothreitol (1:50, w/w) and S-carboxymethylated by iodoacetamide (1:20, w/w). The alkylated proteins were precipitated by methanol/chloroform/water (4:1:3) and centrifuged at 18,000× g for 5 min at 4 °C. The pellet was resuspended in 6 M urea and mixed for 10 min at room temperature before the dilution with 0.1 M Tris-HCl (pH 8.5) to a final concentration of 1.2 M urea, and dissolved completely by intermittent sonication (Branson 3510, Danbury, CT, USA). The dissolved proteins were first digested with LysC (1/100, w/w) and 0.05% ProteaseMax (Promega Biotech AB, Nacka, Sweden) for 3 h at room temperature. Then, the samples were spiked with 10 µL (30 fmol) of the labelled peptides for absolute quantification (JPT Peptide Technologies GmbH, Berlin, Germany) (Table S2). The samples were incubated with (1/100, w/w) TPCK-Trypsin (Promega Biotech AB, Nacka, Sweden) for 18 h at 37 °C. The tryptic digestion was then quenched by adding 40 µL of 5% formic acid. The samples were then centrifuged at 18,000× g for 5 min at 4 °C, and the supernatants were transferred to vials for analysis.
The digested peptides were analyzed using an ultra-performance liquid chromatography system coupled with a triple quadrupole mass spectrometer with a heated electrospray ionization source in the positive mode (UPLC 1290 and MSD 6495, Agilent Technologies, Santa Clara, CA, USA). A total amount of 20 µL of the digested peptides (10 µg) was separated using AdvanceBio Peptide Map 2.1 × 250 mm, 2.7 μm column (Agilent Technologies, Santa Clara, CA, USA) and LC eluents of 0.1% formic acid in water (A) and acetonitrile (B). The peptides were eluted following a constant flow rate of 0.3 mL/min and a gradient of 2–7% B for 2 min, followed by 7–30% B for 48 min, 30–45% B for 3 min, and 45–80% B for 2.5 min before re-equilibrating the column again for 4.5 min. LAT1 was quantified based on the ratio between the light and heavy standard peptides, as described previously (Table S2). Data was acquired using Agilent MassHunter Workstation Acquisition (Agilent Technologies, Data Acquisition for Triple Quadrupole, version B.03.01) and processed by using Skyline software (version 20.1). The results were normalized to a housekeeping protein Na+/K+ATPase and expressed as fmol/µg of the total amount of protein in the samples.

LAT1 [2] = target: T1, LAT1 (Mus musculus, UniProt Q9Z127); test: Cis-inhibition of radiolabelled LAT1-probe substrate uptake into BV2 cells; type: cell-based; conditions: for IC50: 5 min, mean ± SD
Description: (§1) After removal of the culture medium, the BV2 cells were carefully washed with pre-warmed HBSS (Hank’s balanced salt solution) containing 125.0 mM choline chloride, 4.8 mM KCl, 1.2 mM MgSO4, 1.2 mM KH2PO4, 1.3 mM CaCl2, 5.6 mM glucose, and 25.0 mM HEPES (pH 7.4 adjusted with 1 M NaOH). Pre-incubation was done with 500 μL of pre-warmed HBSS at 37 °C for 10 min before adding substrates (250 μL in HBSS) for the uptake experiments.
The ability of compounds 1–15 to inhibit the uptake of a known LAT1 substrate [^14C]-L-leucine was then evaluated by incubating the cells at 37 °C for 5 min in uptake buffer pH 7.4 (250 μL) containing 0.2 µCi/mL of [^14C]-L-leucine, or 2 µCi/mL of [^3H]-L-methionine, [^3H]-L-tryptophan or [^3H]-L-kynurenine (PerkinElmer, Waltham, MA, USA) and 0.1–1000 μM of the studied compound (or HBSS as blank). After incubation, the uptake was stopped by adding 250 µL of ice-cold HBSS, and the cells were washed two times with ice-cold HBSS. The cells were then lysed with 500 μL of NaOH (0.1 M) for 60 min and the lysate was mixed with 3.5 mL of Emulsifier safe cocktail (Ultima Gold, PerkinElmer, Waltham, MA, USA). The radioactivity in the cells was measured by liquid scintillation counting (MicroBeta^2 counter, PerkinElmer Waltham, MA, USA). Half of the maximum inhibitory concentration (IC50) values were calculated by nonlinear regression analysis (fitting the curve to log (concentration) vs. remaining normalized […]).

LAT1 [3] = target: T1, LAT1; test: Cellular uptake of L-leucine after pre-incubation of BV2 cells with the compounds; type: cell-based; conditions: 100 µM (L-glutamine 2 mM) pre-incubated 10 min or 3 h, L-leucine 1–400 µM, 5 min
Description: The ability of compounds 1–15 to affect the uptake of a known LAT1 substrate L-leucine was evaluated by pre-incubating the BV2 cells at 37 °C for 10 min or 3 h with uptake buffer pH 7.4 (250 μL) containing 100 µM of compounds 1–15 or thyroxin (T4), or known nuclear receptor inducible compounds, phenobarbital (constitutive androstane receptor, CAR), and dexamethasone (pregnane X receptor, PXR) as controls. […] After incubation, the reaction was stopped by adding 250 µL of ice-cold HBSS, and the cells were washed two times with ice-cold HBSS. The cells were then lysed with 500 μL of 0.1 M NaOH (60 min) and the lysate was mixed with 3.5 mL of Emulsifier safe cocktail (Ultima Gold, PerkinElmer, Waltham, MA, USA). The radioactivity in the cells was measured by liquid scintillation counting (MicroBeta^2 counter, PerkinElmer Waltham, MA, USA). The results were multiplied by the amount of un-labeled proportion of L-leucine in each sample.

LAT1 [4] = target: T1, LAT1; test: Inhibition type of [14C]-L-Leu uptake (Hanes-Woolf plots) in BV2 cells; type: cell-based; conditions: for Vmax of [14C]-L-Leu uptake: 0.010–0.20 µM [14C]-L-Leu in the presence of the compound at its IC50, mean ± SD, n = 3–4; for Vmax of [14C]-L-Leu uptake / Inhibition Type: BV2; for Inhibition Type: of [14C]-L-Leu uptake, concluded from Km and Vmax
Description: as §1
To evaluate the inhibition type of studied compounds, the BV2 cells were incubated with 0.010–0.20 μM [^14C]-L-leucine together with the studied compound. The concentration of compounds was selected according to the compound-specific IC50 values. The experiment was then carried out as described for the [^14C]-L-leucine uptake above and the radioactivity was measured by liquid scintillation counting. Hanes-Woolf plots were created by setting the ratio of initial substrate concentration to the reaction velocity ([S]/v) against [^14C]-L-leucine concentration (µM). The linear regression was used to calculate Km value (negative value of x-intercept) and Vmax value (1/slope) for [^14C]-L-leucine.

[5] = Time-dependent cellular uptake of compounds into BV2 cells (LC-MS/MS); type: cell-based, mouse; conditions: mouse, BV2 microglia cells, 100 µM compound, 1–60 min, mean ± SD, n = 3, read-out: T½ of cellular uptake
Description: (§2) For the time-dependent cellular uptake experiments, the BV2 cells on 24-well plates were incubated with studied compounds (100 μM) in a pre-warmed HBSS buffer (250 μL) at 37 °C for 1–60 min. Subsequently, the cells were washed three times with an ice-cold HBSS and lysed with 250 μL of NaOH (0.1 M) for 60 min. The lysates were diluted with acetonitrile (ACN) including the selected internal standard (diclofenac to all compounds) with a ratio of 1:3 and centrifuged at 10,000× g for 10 min. The samples were analyzed by the liquid chromatography-tandem mass spectrometric (LC-MS/MS) methods as described below. The concentrations of each compound in cell lysates were calculated from the standard curve that was prepared by spiking known amounts of compounds to ACN including the selected internal standard and then normalized with protein concentration. The protein concentrations on each plate were determined as a mean of three samples by Bio-Rad Protein Assay, based on the Bradford dye-binding method, using bovine serum albumin (BSA) as a standard protein and measuring the absorbance (595 nm) by multiplate reader (EnVision, Perkin Elmer, Inc., Waltham, MA, USA).
(§3) The studied compounds (1–15) were analyzed by using Agilent 1200 Series Rapid Resolution LC System together with an Agilent 6410 Triple Quadrupole Mass Spectrometer equipped with an electrospray ionization source (Agilent Technologies, Santa Clara, CA, USA). The chromatographic separations of analytes were achieved by using a reversed-phase Zobrax SB-C18 column (50 mm × 2.1 mm, 1.8 μm; Agilent Technologies, Santa Clara, CA, USA) by eluting the samples with 0.1% formic acid in water (A) and 0.1% formic in ACN (B). Labetalol and diclofenac were used as internal standards (ISTD) for the prodrugs and parent drugs, respectively. The transitions used for the quantification at the positive ion mode and chromatographic conditions of each compound and their parent drugs are listed in Table S1. The methods of compounds 1–11 have been reported earlier, while the methods of compounds 12–15 are reported herein for the first time.

[6] = tested on: immortalized mouse microglia (BV2); test: as above; type: cell-based
Description: as §2, §3

LAT1 [7] = target: T1, LAT1; test: Cellular uptake of compounds in the presence of LAT1-inhibitor (KMH-233); type: cell-based; conditions: 100 µM compound, 100 µM KMH-233, 30 min, BV2
Description: The competitive uptake in the presence of LAT1-inhibitor (KMH-233) was carried out as described above with HBSS buffer solution containing 100 µM of the studied compounds. The cells were pre-incubated with 100 µM LAT1-inhibitor for 10 min and the incubation mixture was removed before adding the studied compound and LAT1-inhibitor on the cells. The competitive uptake (30 min) with the inhibitor was then carried out as the normal uptake described above. The amounts of studied compounds were analyzed by the LC-MS method and calculated from the spiked standard curve and normalized with the protein concentrations.

LAT1 [8] = target: T1, LAT1; test: Concentration-dependent cellular uptake into BV2 cells, Eadie–Hofstee analysis, Transport Type 1 (LAT1); type: cell-based; conditions: 1–200 µM, 30 min, BV2; Eadie–Hofstee; mean ± SD, n = 3
Description: (§4) For the concentration-dependent cellular uptake experiments, the BV2 cells on 24-well plates were incubated with studied compounds (1–200 μM) in pre-warmed HBSS buffer (250 μL) at 37 °C for 30 min. The experiment was then carried out as described for the time-dependent uptake above and the concentration of studied compounds in the cell lysate was analyzed by the LC-MS/MS methods described above and the results were normalized to the total protein concentration. The distinct transport mechanisms were separated from the Michaelis-Menten kinetics by using Eadie–Hofstee plot.
as §3

Transport Type 2 = test: Concentration-dependent cellular uptake into BV2 cells, Eadie–Hofstee analysis, Transport Type 2; type: cell-based, mouse; conditions: 1–200 µM, 30 min, mean ± SD, n = 3
Description: as §4, §3

[9] = probe [3H]-L-Kynu, n = 3–4, read-out: IC50 of [3H]-L-Kynu uptake
[10] = probe [3H]-L-Met, n = 3–4, read-out: IC50 of [3H]-L-Met uptake
[11] = probe [3H]-L-Trp, n = 3–4, read-out: IC50 of [3H]-L-Trp uptake
[12] = 100 µM compound, 1–60 min, mean ± SD, n = 3

T1 sequence (Q9Z127 whole entry): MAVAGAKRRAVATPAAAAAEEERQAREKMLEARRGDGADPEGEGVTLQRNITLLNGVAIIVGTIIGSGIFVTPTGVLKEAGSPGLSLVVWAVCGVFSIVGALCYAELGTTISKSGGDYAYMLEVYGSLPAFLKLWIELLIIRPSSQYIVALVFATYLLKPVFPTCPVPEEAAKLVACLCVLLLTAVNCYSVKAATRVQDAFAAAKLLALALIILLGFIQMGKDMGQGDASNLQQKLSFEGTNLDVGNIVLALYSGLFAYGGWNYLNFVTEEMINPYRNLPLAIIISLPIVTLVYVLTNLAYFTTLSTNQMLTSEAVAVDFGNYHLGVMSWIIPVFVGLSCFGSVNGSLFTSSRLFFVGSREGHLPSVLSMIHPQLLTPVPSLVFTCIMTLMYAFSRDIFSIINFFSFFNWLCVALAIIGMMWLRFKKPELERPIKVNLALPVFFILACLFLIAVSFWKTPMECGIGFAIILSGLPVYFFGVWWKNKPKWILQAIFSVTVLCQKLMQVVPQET
T1 sequence (P10852 whole entry partner): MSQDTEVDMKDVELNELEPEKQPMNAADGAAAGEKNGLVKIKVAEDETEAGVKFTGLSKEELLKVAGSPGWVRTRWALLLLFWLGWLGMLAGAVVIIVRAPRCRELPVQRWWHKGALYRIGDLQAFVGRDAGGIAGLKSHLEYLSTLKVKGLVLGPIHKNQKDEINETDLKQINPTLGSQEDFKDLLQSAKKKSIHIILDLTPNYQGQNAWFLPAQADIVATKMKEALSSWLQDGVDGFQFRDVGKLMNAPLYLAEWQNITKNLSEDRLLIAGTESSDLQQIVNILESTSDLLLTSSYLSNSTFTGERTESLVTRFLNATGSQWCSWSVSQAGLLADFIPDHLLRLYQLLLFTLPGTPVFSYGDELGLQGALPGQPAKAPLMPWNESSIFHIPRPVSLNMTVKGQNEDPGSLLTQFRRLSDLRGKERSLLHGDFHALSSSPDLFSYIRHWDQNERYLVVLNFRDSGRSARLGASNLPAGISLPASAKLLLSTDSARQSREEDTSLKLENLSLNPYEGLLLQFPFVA

In the case of CCC1(c2ccccc2)C(=O)NC(=O)NC1=O [phenobarbital, reference compound], the “LAT1 expression on the plasma membrane” value (LAT1 [1]) is reported as “did not have any effect on LAT1 expression”.
For CC(C(=O)Nc1ccc(CC(N)C(=O)O)cc1)c1cccc(C(=O)c2ccccc2)c1 (stereo not shown) [Compound 3], the “Inhibition of LAT1-probe substrate uptake / LAT1 affinity” value (LAT1 [2]; over all probe substrates) was “lower affinity and higher IC50 values”, the IC50 (LAT1 [2]; [9]) was 11.9 ± 1.3 µM and the IC50 (LAT1 [2]; [10]) was 17.1 ± 1.9 µM. The IC50 (LAT1 [2]; [11]) was 39.2 ± 1.5 µM, the IC50 (LAT1 [2]; probe [14C]-L-Leu, n = 3–4, read-out: IC50 of [14C]-L-Leu uptake) was 26 ± 1.1 µM and the “Effect on cellular uptake of L-Leu after pre-incubation” value (LAT1 [3]) was “decreased the amount of L-Leu inside the cells”. The “Vmax of [14C]-L-Leu uptake” value (LAT1 [4]) was 2.851 ± 0.035 nmol/min/mg, the “Inhibition Type” value (LAT1 [4]) was “Non-competitive” and the half-life at 100 μM [5] was 1.5 ± 0.67 min. The Max. cellular uptake [6, 12] was 1.96 ± 0.14 nmol/mg of protein, the “Cellular uptake in the presence of LAT1-inhibitor” value (LAT1 [7]) was “inhibited significantly” and the Km (LAT1 [8]) was 1.9 ± 0.3 µM. The “Transport Type 1 (LAT1) Vmax” value (LAT1 [8]) was 3.7 ± 0.5 pmol/mg/min, the Km (Transport Type 2) was 148 ± 41 µM and the “Transport Type 2 Vmax” value (Transport Type 2) was 49 ± 9 pmol/mg/min.
For NC(=O)CC[C@H](N)C(=O)O [L-glutamine, reference compound], the “Effect on cellular uptake of L-Leu after pre-incubation” value (LAT1 [3]) was “decreased the amount of L-Leu inside the cells”.
In the case of CC(C)Cc1ccc([C@H](C)C(=O)Nc2cccc(C[C@H](N)C(=O)O)c2)cc1 [Compound 10], the IC50 (LAT1 [2]; [9]) is reported as 7.7 ± 1.1 µM, the IC50 (LAT1 [2]; [10]) is reported as 9.6 ± 1.6 µM and the IC50 (LAT1 [2]; [11]) is reported as 43.4 ± 1.5 µM. For the same compound, the “Vmax of [14C]-L-Leu uptake” value (LAT1 [4]) was 2.151 ± 0.066 nmol/min/mg, the IC50 (LAT1 [4]; Table 2, compound concentration used in the inhibition type study, corresponding to IC50 of [14C]-L-Leu uptake) was 13 µM and the “Inhibition Type” value (LAT1 [4]) was “Mixed type”. The half-life at 100 μM [5] was < 1 min, the Max. cellular uptake [6, 12] was 4.14 ± 0.31 nmol/mg of protein and the “T½ of cellular uptake” value [6, 12] was 0.87 ± 0.55 min. The “LAT1-substrate or LAT1-binder” value ([6]; concluded from time-dependent uptake, 100 µM) was “LAT1-binders rather than substrates”, the “Cellular uptake in the presence of LAT1-inhibitor” value (LAT1 [7]) was “only reductive trends were seen” and the Km (LAT1 [8]) was 22 ± 6 µM. For the same compound, the “Transport Type 1 (LAT1) Vmax” value (LAT1 [8]) was 205 ± 41 pmol/mg/min.
In the case of C[C@@H]1C[C@H]2[C@@H]3CCC4=CC(=O)C=C[C@]4(C)[C@@]3(F)[C@@H](O)C[C@]2(C)[C@@]1(O)C(=O)CO [dexamethasone, reference compound], the “LAT1 expression on the plasma membrane” value (LAT1 [1]) is reported as “did not have any effect on LAT1 expression”.
